Tested on: airway hyperresponsiveness
Assay: Experiment on airway hyperresponsiveness (late-phase airway response, APTI)
Format: in vivo
Conditions: sensitized mice, acetylcholine 50 μg/kg i.v.; medicament 1 g three times a day intragastric for 17 days; dexamethasone 0.5 ml/kg i.p. daily
Protocol: According to the Above Embodiments 13-18, an Experiment on Airway Hyperresponsiveness was Conducted, with an Experimental Method and Effects being Shown Below:
(1) mice for the experiment: the male mice for this experiment were 6 weeks old;
(2) dose: the dose for each mouse was 3 g/day, 3 times a day;
(3) antigen sensitization, allergy attack and treatment: 200 μg of conalbumin (CA) and 2 mg of dinitrobenzene (DNP)-bound albumin were dissolved in 0.3 ml of buffer solution PBS and then […] injected into mice for sensitization twice at an interval of one week. The mice were anesthetized 7 days later after the second sensitization, and were intratracheally provided with 0.05 ml of buffer solution PBS containing 100 μg of conalbumin (CA) to induce an allergy attack. On the 20th day and the 30th day, a further allergy attack was induced by the same method at twice dose. The mice having an allergy attack were divided into 9 groups 24 hours later after the first allergy attack. […]
(4) measurement of late-phase airway response: on the third day after the last allergy attack, the mice of the above 8 groups were intravenously injected with acetylcholine, and then the airway pressure changes of these mice and those of group 9 were all measured to reflect airway responses. […]

C[C@@H]1C[C@H]2[C@@H]3CCC4=CC(=O)C=C[C@]4(C)[C@@]3(F)[C@@H](O)C[C@]2(C)[C@@]1(O)C(=O)CO [dexamethasone]
APTI (airway pressure-time index): 565 ± 31 centimeter water column per second

Source: patent US20190038711A1, “Medicament For Treating Pulmonary Tuberculosis” (Shandong Zhonghai Pharmaceutical CO. LTD, priority 2016, published 2019)
